13 compounds from patent US5424326A, “Phenyl-1,2,5-oxadiazolecarboxamide-2-oxides, their preparation and their use” (Cassella Aktiengesellschaft, priority 1992, dated 1995) can be followed below.

In one assay the test system is pulmonary artery of the guinea-pig. Description: relaxation of potassium-depolarised pulmonary artery strips of the guinea-pig (CaCl2-induced contraction). The note with it: 40 mmol/l potassium, 0.5 mmol/l CaCl2; cumulative addition; average value of 4 to 6 vessel strips; read-out: IC50 (concentration which inhibits the contraction by 50%). Here is the method: In this method, spiral strips of the pulmonary artery of the guinea-pig are depolarised with 40 mmol/l of potassium after equiliberation in calcium-free Tyrode solution. An addition of 0.5 mmol/l of CaCl2 then induces a contraction.
The relaxing action of the test substance is determined by cumulative addition in 1/2 log 10 graded concentrations.
Take “N-Butyl-3-phenyl-1,2,5-oxadiazole-4-carboxamide-2-oxide [Compound 5a]”: the IC50 is 700 nM.

In the case of “N-(3-Diethylaminopropyl)-3-phenyl-1,2,5-oxadiazole-4-carboxamide-2-oxide [Compound 6a]”, the IC50 is 400 nM.

As for “N-Methyl-3-(3,4-dimethoxyphenyl)-1,2,5-oxadiazole-4-carboxamide-2-oxide [Compound 4a]”, the IC50 worked out at 5000 nM.

Still in this assay, the particulars now being: Cavia porcellus; 40 mmol/l potassium, 0.5 mmol/l CaCl2; cumulative addition; average value of 4 to 6 vessel strips; read-out: IC50 (concentration which inhibits the contraction by 50%).
For `CCOC(=O)[N-]c1cn(N2CCOCC2)n[o+]1` [Molsidomine, reference compound], the IC50 was 300000 nM.

`COc1ccc(-c2no[n+]([O-])c2C(=O)NCCN(C(C)C)C(C)C)cc1OC` [Compound 13a]: the IC50 stood at 300 nM.

For the compound `O=C(NCc1cccnc1)c1no[n+]([O-])c1-c1ccccc1` [Compound 7b], the IC50 was found to be 2000 nM.

Regarding `CC(C)N(CCNC(=O)c1no[n+]([O-])c1-c1ccccc1)C(C)C` [Compound 12b], the IC50 turned out to be 2000 nM.

For the compound `O=C(NCc1ccncc1)c1c(-c2ccccc2)no[n+]1[O-]` [Compound 14a], the IC50 amounted to 500 nM.

Turning to `O=C(NCc1cccnc1)c1c(-c2ccccc2)no[n+]1[O-]` [Compound 7a], the IC50 came out at 300 nM.

For the compound `NC(=O)CNC(=O)c1c(-c2ccccc2)no[n+]1[O-]` [Compound 10a], the IC50 was 1000 nM.

Consider `O=[N+]([O-])OC1COC2C(O)COC12` (stereo not shown) [Isosorbide-5-mononitrate, reference compound], for which the IC50 is greater than 100000 nM.

Turning to `O=C(NCc1ccncc1)c1no[n+]([O-])c1-c1ccccc1` [Compound 14b], the IC50 worked out at 1000 nM.

Regarding `CNC(=O)c1c(-c2ccccc2)no[n+]1[O-]` [Compound 1a, N-Methyl-4-phenyl-1,2,5-oxadiazole-3-carboxamide-2-oxide], the IC50 stood at 1000 nM.
